This assay relates to HCV pseudoparticles (genotype 1a HCV E1 and E2 envelope, H77C isolate). The assay can be described thus: microbe, parasite or virus in culture. As to conditions: Hepatitis C virus. Format: cell-based.
The mark [1] stands for this setting: Huh-7, 48 h, read-out: Activity (EC50 class), HCV pseudoparticle infection of Huh7 cells, luciferase 2 days after infection, EC50 expressed as class A/B.
[2] abbreviates: Huh-7, read-out: Activity (EC50 class), HCV pseudoparticles (genotype 1a, H77C) in Huh7 cells, EC50 expressed as class A/B.
Setting [3] is: Huh-7, 48 h, read-out: Activity (EC50 class), HCV pseudoparticles, Huh7 cells, luciferase 2 days after infection, average of duplicates.
The mark [4] stands for this setting: Huh-7, 48 h, HCV pseudoparticles (genotype 1a, H77C) in Huh7 cells, average of duplicate, luciferase 2 days after infection.
[5] abbreviates: Huh-7, 48 h, HCV pseudoparticle infection of Huh7 cells, luciferase 2 days after infection, average of duplicates.

SMILES strings stand for the structures. pEC50: −log10 of the molar value. Read-outs that look alike come from different tables or passages of the source.

On to `COC(=O)[C@H](CCNC(=O)C(=O)N[C@H]1C[C@@H]2C[C@@H]([C@@H]1C)C2(C)C)NC(=O)c1ccc(Nc2nc(NC3(c4ccc(Cl)cc4)CC3)nc(OCC(F)(F)F)n2)cc1` [Compound 1110], for which, under setting [1], the pEC50 was 8.00 to 11.00.
Still for that read-out and setting: under `O=C(NCC1CCOCC1)C(=O)NC[C@H](NC(=O)c1ccc(Nc2nc(NC3(c4ccc(Cl)cc4)CC3)nc(OCC(F)(F)F)n2)cc1)C(=O)O` [Compound 1477] stands 8.00 to 11.00.
For the compound `NC(=O)C(=O)N1CCCC(CNC(=O)c2ccc(Nc3nc(NC4(c5ccc(Cl)cc5)CC4)nc(OCC(F)(F)F)n3)cc2)C1` (stereo not shown) [Compound 3480], the pEC50 under setting [2] is 8.00 to 11.00.
On the same count and under the same terms, under `CN(CCCN(C)C(=O)c1ccc(Nc2nc(NC3(c4ccc(Cl)cc4)CC3)nc(OCC(F)(F)F)n2)cc1)C(=O)C(N)=O` [Compound 3411] stands 8.00 to 11.00; under `CC(C)OC(=O)c1ccc(NC(=O)C(=O)NCC(C)(C)CNC(=O)c2ccc(Nc3nc(NC4(c5ccc(Cl)cc5)CC4)nc(OCC(F)(F)F)n3)cc2)cc1` [Compound 3259], 8.00 to 11.00.
On to `COC(=O)[C@H](CNC(=O)C(=O)NCCc1ccc(F)cc1)NC(=O)c1ccc(Nc2nc(NC3(c4ccc(Cl)cc4)CC3)nc(OCC(F)(F)F)n2)cc1` [Compound 1292], for which the pEC50 under setting [1] is 8.00 to 11.00.
Regarding `O=C(NC[C@H](NC(=O)c1ccc(Nc2nc(NC3(c4ccc(Cl)cc4)CC3)nc(OCC(F)(F)F)n2)cc1)C(=O)Cl)C(=O)Nc1ccc(OCCN2CCCCC2)nc1` [Compound 3791], the pEC50 under setting [3] was 8.00 to 11.00.
Regarding `CC(C)CNC(=O)C(=O)N(C)CCCN(C)C(=O)c1ccc(Nc2nc(NC3(c4ccc(Cl)cc4)CC3)nc(OCC(F)(F)F)n2)cc1` [Compound 3431], the pEC50 under setting [2] was 8.00 to 11.00.
`COC(=O)[C@H](CCNC(=O)C(=O)NCc1cccc(F)c1)NC(=O)c1ccc(Nc2nc(NC3(c4ccc(Cl)cc4)CC3)nc(OCC(F)(F)F)n2)cc1` [Compound 1139]: the pEC50 under setting [1] was 8.00 to 11.00.
For the compound `COC(=O)[C@H](CCNC(=O)C(=O)Nc1ccc(-c2cc[nH]n2)cc1)NC(=O)c1ccc(Nc2nc(NC3(c4ccc(Cl)cc4)CC3)nc(OCC(F)(F)F)n2)cc1` [Compound 3310], the negative logarithm of the EC50 (pEC50) was 8.67 under setting [4] and 8.00 to 11.00 under setting [2].
As to `CC(C)(CNC(=O)C(=O)Nc1ccc(-c2cccc(F)c2)cc1)CNC(=O)c1ccc(Nc2nc(NC3(c4ccc(Cl)cc4)CC3)nc(OCC(F)(F)F)n2)cc1` [Compound 3797], the pEC50 under setting [3] was 8.00 to 11.00.
Regarding `CCc1ccc(NC(=O)C(=O)NCC[C@H](NC(=O)c2ccc(Nc3nc(NC4(c5ccc(Cl)cc5)CC4)nc(OCC(F)(F)F)n3)cc2)C(=O)OC)cc1` [Compound 3330], under setting [2], the pEC50 was 8.00 to 11.00.
Same read-out and setting: in the case of `CC(C)(CNC(=O)C(=O)Nc1ccc2c(c1)CCC2=O)CNC(=O)c1ccc(Nc2nc(NC3(c4ccc(Cl)cc4)CC3)nc(OCC(F)(F)F)n2)cc1` [Compound 3355] it was 8.00 to 11.00.
On the same count and under the same terms, under `CC(C)(CNC(=O)C(=O)Nc1ccc2[nH]ccc2c1)CNC(=O)c1ccc(Nc2nc(NC3(c4ccc(Cl)cc4)CC3)nc(OCC(F)(F)F)n2)cc1` [Compound 3338] stands 8.00 to 11.00.
As for `COCC1(CNC(=O)C(=O)NCC[C@@H](NC(=O)c2ccc(Nc3nc(NC4(c5ccc(Cl)cc5)CC4)nc(OCC(F)(F)F)n3)cc2)C(=O)O)CC1` [Compound 1419], under setting [1], the negative logarithm of the EC50 (pEC50) was 8.00 to 11.00.
Regarding `O=C(NCC[C@H](NC(=O)c1ccc(Nc2nc(NC3(c4ccc(Cl)cc4)CC3)nc(OCC(F)(F)F)n2)cc1)C(=O)O)C(=O)Nc1ccc(Oc2cccnc2)nc1` [Compound 3624], under setting [3], the pEC50 was 8.00 to 11.00.
For the compound `CCC1(CC)CC1CNC(=O)C(=O)NCC[C@H](NC(=O)c1ccc(Nc2nc(NC3(c4ccc(Cl)cc4)CC3)nc(OCC(F)(F)F)n2)cc1)C(=O)OC` (stereo partly shown) [Compound 1199], the negative logarithm of the EC50 (pEC50) under setting [5] was 9.72 and the negative logarithm of the EC50 (pEC50) under setting [1] was 8.00 to 11.00.
Regarding `CC(C)(CNC(=O)C(=O)NCc1ccc(C(=N)N)cc1)CNC(=O)c1ccc(Nc2nc(NC3(c4ccc(Cl)cc4)CC3)nc(OCC(F)(F)F)n2)cc1` [Compound 3043], the negative-log EC50 (pEC50) under setting [2] was 8.00 to 11.00.
Take `O=C(NCC(O)CNC(=O)c1ccc(Nc2nc(NC3(c4ccc(Cl)cc4)CC3)nc(OCC(F)(F)F)n2)cc1)C(=O)Nc1cc(F)cc(F)c1` (stereo not shown) [Compound 3461]: the negative-log EC50 (pEC50) under setting [4] is 10.57 and the pEC50 under setting [2] was 8.00 to 11.00.
For `COc1cccc(CCNC(=O)C(=O)NCC[C@H](NC(=O)c2ccc(Nc3nc(NC4(c5ccc(Cl)cc5)CC4)nc(OCC(F)(F)F)n3)cc2)C(=O)O)c1` [Compound 1330], the pEC50 under setting [1] was 8.00 to 11.00.
On to `CC(C)CNC(=O)C(=O)NCC(C)(C)CNC(=O)c1ccc(Nc2nc(NC3(c4ccc(Cl)cc4)CC3)nc(OCC(F)(F)F)n2)cc1` [Compound 1551], for which the pEC50 under setting [1] is 8.00 to 11.00.
Turning to `Cc1ccc(COc2nc(Nc3ccc(C(=O)NCC(C)(C)CNC(=O)C(=O)Nc4ccc(C)cc4)cc3)nc(NC3(c4ccc(Cl)cc4)CC3)n2)cc1` [Compound 3848], under setting [3], the pEC50 is 8.00 to 11.00.
Turning to `O=C(NCC[C@H](NC(=O)c1ccc(Nc2nc(NC3(c4ccc(Cl)cc4)CC3)nc(OCC(F)(F)F)n2)cc1)C(=O)O)C(=O)Nc1ccc(C(O)N2CCOCC2)cc1` (stereo partly shown) [Compound 3229], under setting [2], the negative logarithm of the EC50 (pEC50) was 6.00 to 8.00.
With `CC(C)(CNC(=O)C(=O)Nc1nc2ccc(F)cc2s1)CNC(=O)c1ccc(Nc2nc(NC3(c4ccc(Cl)cc4)CC3)nc(OCC(F)(F)F)n2)cc1` [Compound 3804], the negative logarithm of the EC50 (pEC50) under setting [3] is 8.00 to 11.00.
For `O=C(NCc1ccc(F)cc1)C(=O)NC[C@H](NC(=O)c1ccc(Nc2nc(NC3(c4ccc(Cl)cc4)CC3)nc(OCC(F)(F)F)n2)cc1)C(=O)O` [Compound 1166], the pEC50 under setting [1] was 8.00 to 11.00.
On to `CN(C)C(=O)C(=O)NC[C@H](NC(=O)c1ccc(Nc2nc(NC3(c4ccc(Cl)cc4)CC3)nc(OCC(F)(F)F)n2)cc1)C(=O)OCCN1CCOCC1` [Compound 1022, (S)-2-morpholinoethyl 2-(4-(4-(1-(4-chlorophenyl)cyclopropylamino)-6-(2,2,2-trifluoroethoxy)-1,3,5-triazin-2-ylamino)benzamido)-3-(2-(dimethylamino)-2-oxoacetamido)propanoate], for which the pEC50 runs as follows: under setting [5], 8.15; under setting [1], 8.00 to 11.00.
For the compound `COC(=O)C(CNC(=O)C(=O)NC1CCCC(NC(=O)OC(C)(C)C)C1)NC(=O)c1ccc(Nc2nc(NC3(c4ccc(Cl)cc4)CC3)nc(OCC(F)(F)F)n2)cc1` (stereo not shown) [Compound 1053], the pEC50 under setting [1] is 8.00 to 11.00.
With `CC(C)(CNC(=O)C(=O)Nc1ccc2ncsc2c1)CNC(=O)c1ccc(Nc2nc(NC3(c4ccc(Cl)cc4)CC3)nc(OCC(F)(F)F)n2)cc1` [Compound 3340], the pEC50 under setting [2] is 8.00 to 11.00.
For `COC(=O)[C@H](CNC(=O)C(=O)Nc1ccc(C(C)C)cc1)NC(=O)c1ccc(Nc2nc(NC3(c4ccc(Cl)cc4)CC3)nc(OCC(F)(F)F)n2)cc1` [Compound 3212], the pEC50 under setting [2] was 8.00 to 11.00.
With `COC(=O)[C@H](CNC(=O)C(=O)Nc1ccc(N2CCCC2)nc1)NC(=O)c1ccc(Nc2nc(NC3(c4ccc(Cl)cc4)CC3)nc(OCC(F)(F)F)n2)cc1` [Compound 3721], the negative logarithm of the EC50 (pEC50) under setting [3] is 8.00 to 11.00.
Turning to `CC(C)(CNC(=O)C(=O)Nc1ccc(O)cc1)CNC(=O)c1ccc(Nc2nc(NCc3ccc(O)cc3)nc(OCC(F)(F)F)n2)cc1` [Compound 1496], the negative-log EC50 (pEC50) under setting [1] is 8.00 to 11.00.
As for `Cc1cc(C)n(-c2ccc(NC(=O)C(=O)NC/C(=N/C(=O)c3ccc(Nc4nc(NC5(c6ccc(Cl)cc6)CC5)nc(OCC(F)(F)F)n4)cc3)C(=O)O)cc2)n1` [Compound 3174], the pEC50 under setting [2] is 8.00 to 11.00.
As for `CC(C)(CNC(=O)C(=O)NS(=O)(=O)c1ccccc1)CNC(=O)c1ccc(Nc2nc(NC3(c4ccc(Cl)cc4)CC3)nc(OCC(F)(F)F)n2)cc1` [Compound 3021], the negative-log EC50 (pEC50) is, setting by setting: under setting [4], 9.14; under setting [2], 8.00 to 11.00.
In the case of `COC(=O)[C@H](CCNC(=O)C(=O)Nc1cnn(C)c1)NC(=O)c1ccc(Nc2nc(NC3(c4ccc(Cl)cc4)CC3)nc(OCC(F)(F)F)n2)cc1` [Compound 1226], the pEC50 under setting [1] is 8.00 to 11.00.
As for `COc1cccc2sc(NC(=O)C(=O)NCC(C)(C)CNC(=O)c3ccc(Nc4nc(NC5(c6ccc(Cl)cc6)CC5)nc(OCC(F)(F)F)n4)cc3)nc12` [Compound 3813], the negative-log EC50 (pEC50) under setting [3] is 8.00 to 11.00.
`COC(=O)[C@H](CNC(=O)C(=O)Nc1ccc(-c2ccc(C)cc2)cc1)NC(=O)c1ccc(Nc2nc(NC3(c4ccc(Cl)cc4)CC3)nc(OCC(F)(F)F)n2)cc1` [Compound 3188]: the pEC50 under setting [2] is 8.00 to 11.00.
For `COC(=O)[C@H](CNC(=O)C(=O)NCc1cc(F)ccc1F)NC(=O)c1ccc(Nc2nc(NC3(c4ccc(Cl)cc4)CC3)nc(OCC(F)(F)F)n2)cc1` [Compound 1154], the negative logarithm of the EC50 (pEC50) runs as follows: under setting [5], 8.97; under setting [1], 8.00 to 11.00.
On to `CC(CNC(=O)C(=O)Nc1ccc(F)cc1F)CNC(=O)c1ccc(Nc2nc(NC3(c4ccc(Cl)cc4)CC3)nc(OCC(F)(F)F)n2)cc1` (stereo not shown) [Compound 3473], for which the pEC50 under setting [2] is 8.00 to 11.00.
For `Cc1ccc(NC(=O)C(=O)NC[C@H](NC(=O)c2ccc(Nc3nc(NC4(c5ccc(Cl)cc5)CC4)nc(OCC(F)(F)F)n3)cc2)C(=O)O)cc1` [Compound 1360], under setting [1], the pEC50 is 8.00 to 11.00.
With `O=C(NCC[C@H](NC(=O)c1ccc(Nc2nc(NC3(c4ccc(Cl)cc4)CC3)nc(OCC(F)(F)F)n2)cc1)C(=O)O)C(=O)NC1C[C@H]2CC[C@@H]1C2` (stereo partly shown) [Compound 1120], the pEC50 under setting [1] is 8.00 to 11.00.
Still for that read-out and setting: in the case of `O=C(NCC[C@H](NC(=O)c1ccc(Nc2nc(NC3(c4ccc(Cl)cc4)CC3)nc(OCC(F)(F)F)n2)cc1)C(=O)O)C(=O)NC(CCO)C1CC1` (stereo partly shown) [Compound 1439] it was 8.00 to 11.00.
As for `COC(=O)[C@H](CNC(=O)C(=O)Nc1ccc(Oc2cccnc2)nc1)NC(=O)c1ccc(Nc2nc(NC3(c4ccc(Cl)cc4)CC3)nc(OCC(F)(F)F)n2)cc1` [Compound 3699], the pEC50 under setting [3] is 8.00 to 11.00.
Turning to `COC(=O)[C@H](CCNC(=O)C(=O)Nc1ccc(OCC(F)(F)F)cc1)NC(=O)c1ccc(Nc2nc(NC3(c4ccc(Cl)cc4)CC3)nc(OCC(F)(F)F)n2)cc1` [Compound 3125], the pEC50 under setting [2] was 8.00 to 11.00.

What is called pEC50 is the negative decadic logarithm of the EC50, by convention in mol/L.

Values taken from patent publication US8916702B2 (priority 2012, dated 2014).
